# Laboratory results: PMC7181660, “A novel specific PERK activator reduces toxicity and extends survival in Huntington's disease models” (Scientific Reports, 2020)
# Tested on: STHdh^Q111/111 cells
# Assay: Apoptosis of STHdh^Q111/111 cells with the NRF2 inhibitor ML385
# Format: cell-based, murine
# Protocol: STHdh^Q111/111 cells (used before[13]) or PERK+/+ or PERK−/− MEFs (kindly provided by David Ron, Univ. Cambridge) were incubated with Tun (10 μg/ml) for 48 h, which results in ER stress-induced cell death. Cells under the same conditions were incubated for the same times, together with Tun, with increasing concentrations of the different PERK modulators (0–120 μM) and the percent of apoptotic cells was measured by FACS cell cycle progression using propidium iodide (PI), considering the fraction beneath G0/G1. The relative apoptosis rate was calculated to be able to compare between compounds and experiments, where for each concentration curve the percent of apoptotic cells was considered 100 at concentration 0 of the PERK modulator, with only Tun. The graphs show the average relative apoptosis rate of at least 3 independent experiments for each compound.
# Suppl. Fig. S5. NRF2 activation but not involvement in cell protection by MK-28. A)
# Scheme of NRF2 activation by PERK. B) qPCR of HMOX1, a downstream target of NR F2.
# Medians +- interquartile range of 3 independent experiments . P values of STHdhQ7/7 MK 5µM […]
# presence of Tun and the indicated concentrations of MK-28, plus increasing concentrations of the NRF2 inhibitor ML385. Average of 3 independent experiments +-SD. D) Apoptosis of STHdhQ111/111 cells treated only with increasing concentrations of ML385. […]
structure (smiles),measurement,setting,value
Cc1ccccc1C(=O)N1CCc2cc(-c3nc(NC(=O)Cc4ccc5c(c4)OCO5)sc3C)ccc21 [ML385],reversal of the cytoprotective effect of MK-28,Tun + MK-28 + increasing ML385,did not reverse to any significant extent
same,toxicity (apoptosis) of ML385,increasing concentrations,caused some toxicity
